Measured values as given in paper PMC6747051, “Screening of Antiviral Components of Ma Huang Tang and Investigation on the Ephedra Alkaloids Efficacy on Influenza Virus Type A” (Frontiers in Pharmacology, 2019).
Converted amounts (≈) assume the structure as drawn. “And” between values parts separate entries of the source, which are not always exact repeats. Identical values can stand only once. “Also recorded” adds a separate entry of the source. Like-named read-outs stand apart in the source and are kept apart here.

Columns and labels:
influenza A virus [1] = assay: Viral load assay using real-time RT-PCR (M1 gene) and CPE in infected MDCK cells; format: cell-based, influenza virus A/PR8/34 (H1N1); conditions: for virus load vs oseltamivir group: LMEP 31.25 μg/ml, LEP […], DPEP […]
[2] = test system: IL-6, IFN-β and TNF-α levels; format: cell-based, canine
[3] = test system: influenza A virus (A PR/8/34); assay: Lung index of influenza A virus-infected mice; format: in vivo, ICR mice
Procedure: (§1) A total of 108 ICR mice were randomly divided into the control uninfected group, the control infected group, oseltamivir group, LEP-treated groups and DPEP-treated groups; 12 mice were designed in each group. Except for the mice in the control uninfected group, others were anaesthetized with ethyl ether and intranasally infected with 10LD50 influenza A virus (A PR/8/34) in a volume of 50 μl PBS to induce viral pneumonia. […] Meanwhile, the control uninfected group and the control infected group were only given saline with the same volume. […] The adult daily dose was converted into the high dose of mice, which was about 40 mg/kg. Based on the high dose of the drug, the medium and low doses were set.
(§2) In the 3rd and 7th days after infection, to monitor the histological changes in influenza A virus-infected animals, six mice were sacrificed randomly in each group, and lung, spleen and thymus tissues were obtained and weighed after being washed with saline solution. Lung index and the inhibition ratio of the lung index were calculated as our previous report, while spleen and thymus indexes were calculated based on the following formulas ([Ling et al., 2017]).

[4] = test system: influenza A virus (A PR/8/34); assay: Spleen and thymus indexes of infected mice; format: in vivo, ICR mice
Procedure: as §1, §2
Spleen index = (spleen weight/body weight)×100%;
Thymus index = (thymus weight/body weight)×100%;

[5] = test system: IL-1β, IL-6 and IL-10 in serum; format: in vivo, ICR mice; conditions: 3rd and 7th day after infection
Procedure: as §1
In days 3 and 7 post-infection, blood samples of six mice from each group were collected from retroorbital sinus under mild ethyl ether anesthesia before they were sacrificed, then under 4 °C they were centrifuged at 3000 rpm for 20 min to obtain serum. The levels of IL-1β, IL-6 and IL-10 in murine serum were determined by ELISA kits.

[6] = test system: TLR4, TLR7, MyD88 and NF-κB p65 protein expression; parameters: species or system ICR mice; conditions: mouse, in vivo
MDCK cells = conditions: dog
influenza A virus [7] = assay: microbe, parasite or virus in culture; conditions: MDCK, 48 h, read-out: Cell survival rate
influenza A virus [8] = conditions: for cell viability rate: dog
influenza A virus [9] = assay: Antiviral activity assay in vitro with four ways of drug delivery (MTT, MDCK cells); format: cell-based, influenza virus A/PR8/34 (H1N1); conditions: for EC50: Influenza A virus, MDCK
[10] = test system: TLRs signaling pathway mRNA; format: cell-based, canine
[11] = 24 and 48 h after administration

CCOC(=O)C1=C[C@@H](OC(CC)CC)[C@H](NC(C)=O)[C@@H](N)C1 [Oseltamivir, reference compound]
CPE of infected MDCK cells (influenza A virus [1]; [11]): significantly reduce the CPE | IL-6 level in cell supernatant vs control infected group [2]: significantly higher than that in the control infected group | Inhibition ratio of lung index ([3]; Day 3, 22 mg/kg by gavage): 41.27% | Lung index ([3]; Day 3, 22 mg/kg by gavage): 0.74 ± 0.03 | Inhibition ratio of lung index ([3]; Day 7, 22 mg/kg by gavage): 38.86% | Lung index ([3]; Day 7, 22 mg/kg by gavage): 1.18 ± 0.11 | spleen index ([4]; Day 3, 22 mg/kg): 0.51 ± 0.13 | thymus index ([4]; Day 3, 22 mg/kg): 0.45 ± 0.05 | spleen index ([4]; Day 7, 22 mg/kg): 0.49 ± 0.08 | thymus index ([4]; Day 7, 22 mg/kg): 0.38 ± 0.03 | IL-10 in serum ([5]; P < 0.01): accelerated the production of IL-10 | IL-1β in serum ([5]; P < 0.01 or P < 0.05): dramatically inhibited the production of IL-1β | IL-6 in serum ([5]; P > 0.05): slightly increased | protein expression levels of MyD88 and NF-κB p65 in lung tissue [6]: significantly down-regulated | protein expression levels of TLR4 and TLR7 in lung tissue [6]: Decreased | TC0 (MDCK cells; 48 h): 100.00 µg/mL | TC50 (MDCK cells; 48 h): 500.00 µg/mL (≈ 1600 µM) | viability at 10 µg/mL (influenza A virus [7]): 82.7%

OC/C=C/c1ccccc1 [CAO, cinnamic alcohol]
TC0 (MDCK cells): 125.00 µg/mL | TC50 (MDCK cells): 390.84 µg/mL (≈ 2910 µM) | effect on the cell viability after virus infection (in words) (influenza A virus [8]): little antiviral effect | viability at 3.91 µg/mL (influenza A virus [7]): 25% | viability at 7.81 µg/mL (influenza A virus [7]): 25.9% | viability at 31.25 µg/mL (influenza A virus [7]): 26.4% | viability at 125 µg/mL (influenza A virus [7]): 32.6% | viability at […] (influenza A virus [7]): 26.7% and 29.9%

O=C(O)/C=C/c1ccccc1 [CMA, cinnamic acid]
effect on the cell viability after virus infection (in words) (influenza A virus [8]): little antiviral effect | viability at 1.95 µg/mL (influenza A virus [7]): 27.7% | viability at 3.91 µg/mL (influenza A virus [7]): 27.9% | viability at 7.81 µg/mL (influenza A virus [7]): 30.9% | viability at 31.25 µg/mL (influenza A virus [7]): 33.5% | viability at […] (influenza A virus [7]): 34.8%

O=C1C[C@@H](c2ccc(O[C@@H]3O[C@H](CO)[C@@H](O)[C@H](O)[C@H]3O)cc2)Oc2cc(O)ccc21 [LIQ, liquiritin]
TC0 (MDCK cells; 48 h): 250.00 µg/mL | TC50 (MDCK cells; 48 h): 680.77 µg/mL (≈ 1630 µM) | effect on the cell viability after virus infection (in words) (influenza A virus [8]): little antiviral effect | viability at 7.81 µg/mL (influenza A virus [7]): 26.6% | viability at 31.25 µg/mL (influenza A virus [7]): 28.4% | viability at 125 µg/mL (influenza A virus [7]): 32.2% | viability at 250 µg/mL (influenza A virus [7]): 33.7% | viability at […] (influenza A virus [7]): 26.9% and 28%

C[C@@H]([C@H](O)c1ccccc1)N(C)C [LMEP, L-methylephedrin]
antiviral effective rate (ER) (influenza A virus [9]; 31.25 μg/ml (highest concentration), post-treatment host cells after virus infection): 63.52% and 64.16% | antiviral effective rate (ER) (influenza A virus [9]; 31.25 μg/ml, limited treatment of 1 hour during virus infection): 60.58% | antiviral effective rate (ER) (influenza A virus [9]; 31.25 μg/ml, pre-treatment host cells prior to virus infection): 56.94% | antiviral effective rate (ER) (influenza A virus [9]; 31.25 μg/ml, pre-treatment of virus with drug): 61.48% | EC50 (influenza A virus [9]; drug delivery way: Blocking viruses invading host cells): 20.4 µg/mL (≈ 114 µM) | EC50 (influenza A virus [9]; drug delivery way: Directly inhibiting virus): 7.55 µg/mL (≈ 42.1 µM) | EC50 (influenza A virus [9]; drug delivery way: Inhibiting the biosynthesis of virus): 6.65 µg/mL (≈ 37.1 µM) | EC50 (influenza A virus [9]; drug delivery way: Intervening the adsorption of virus): 7.85 µg/mL (≈ 43.8 µM) | antiviral effective rate (ER) (influenza A virus [9]; final concentration 3.91 μg/ml): more than 34.00% | CPE of infected MDCK cells (influenza A virus [1]; [11]): significantly reduce the CPE | virus load vs oseltamivir group (influenza A virus [1]; 24 h treatment, P < 0.05): significantly lower than that of oseltamivir group | virus load vs oseltamivir group (influenza A virus [1]; 48 h treatment): no difference | viral load in MDCK cells vs control infected group (influenza A virus [1]; each dose group, 24 and 48 h after administration, P < 0.01 or P < 0.05): significantly decreased | IL-6 level in cell supernatant vs control infected group [2]: significantly higher than that in the control infected group | level of IFN-β in cell supernatant vs control infected group [2]: significantly increase; also recorded: increased | secretion of TNF-α vs control infected group [2]: significantly inhibited the secretion of TNF-α | mRNA expression levels of TLR7, NF-κB p65, TLR3 and IRF3 [10]: significantly reduced | mRNA expression of IFN-β [10]: significantly increased | mRNA expression of TLR4 [10]: significant decreased | mRNA expression of TLR4, MyD88 and TRAF3 [10]: significantly reduced | mRNA expression of TRAF3 [10]: significantly reduced | TC0 (MDCK cells): 31.25 µg/mL | TC50 (MDCK cells): 216.77 µg/mL (≈ 1210 µM) | cells' survival rate (MDCK cells): higher than 90% | cell viability rate (influenza A virus [8]): ≥ 70% | viability at 0.98 µg/mL (influenza A virus [7]): 57.3% | viability at 1.95 µg/mL (influenza A virus [7]): 63.2% | viability at 3.91 µg/mL (influenza A virus [7]): 66.6% | viability at 7.81 µg/mL (influenza A virus [7]): 70.3% | viability at 31.25 µg/mL (influenza A virus [7]): 77.8% | viability at […] (influenza A virus [7]): 75.1%

N#C[C@H](O[C@@H]1O[C@H](CO[C@@H]2O[C@H](CO)[C@@H](O)[C@H](O)[C@H]2O)[C@@H](O)[C@H](O)[C@H]1O)c1ccccc1 [AMY, amygdalin]
TC0 (MDCK cells): 31.25 µg/mL | TC50 (MDCK cells): 563.64 µg/mL (≈ 1230 µM) | effect on the cell viability after virus infection (in words) (influenza A virus [8]): little antiviral effect | viability at 0.98 µg/mL (influenza A virus [7]): 26.2% | viability at 1.95 µg/mL (influenza A virus [7]): 27% | viability at 3.91 µg/mL (influenza A virus [7]): 29% | viability at 7.81 µg/mL (influenza A virus [7]): 27.9% | viability at 31.25 µg/mL (influenza A virus [7]): 28.9% | viability at […] (influenza A virus [7]): 28.2%

CC1(C)[C@@H](O[C@H]2O[C@H](C(=O)O)[C@@H](O)[C@H](O)[C@H]2O[C@@H]2O[C@H](C(=O)O)[C@@H](O)[C@H](O)[C@H]2O)CC[C@]2(C)[C@H]3C(=O)C=C4[C@@H]5C[C@@](C)(C(=O)O)CC[C@]5(C)CC[C@@]4(C)[C@]3(C)CC[C@@H]12 [GA, glycyrrhizic acid]
TC0 (MDCK cells; 48 h): 125.00 µg/mL | TC50 (MDCK cells; 48 h): 663.74 µg/mL (≈ 807 µM) | effect on the cell viability after virus infection (in words) (influenza A virus [8]): slightly increase the cell viability rate, but not obviously | cell viability rate (influenza A virus [8]): about 47% | viability at 3.91 µg/mL (influenza A virus [7]): 31.1% | viability at 7.81 µg/mL (influenza A virus [7]): 32.8% | viability at 31.25 µg/mL (influenza A virus [7]): 43% | viability at 125 µg/mL (influenza A virus [7]): 47.2% | viability at […] (influenza A virus [7]): 34.4% and 46%
